Reference: patent US6511997B1, “Aminopyrazole derivatives” (Teikoku Hormone Mfg. Co., Ltd., priority 1998, dated 2003)

SMILES | melting point
C[C@H](N)C(=O)Nc1n[nH]c(-c2ccc(F)cc2)c1-c1ccncc1.Cl | 210.2 to 211.5 °C
CC(C)[C@H](N)C(=O)Nc1n[nH]c(-c2ccc(F)cc2)c1-c1ccncc1.Cl | 205.3 to 206.4 °C
O=C(Cc1ccccc1)Nc1n[nH]c(-c2ccc(F)cc2)c1-c1ccncc1 [Example 1, 5-(4-fluorophenyl)-3-phenylacetylamino-4-(4-pyridyl)pyrazole] | 289.2 to 290.4 °C
O=C(CCc1ccccc1)Nc1n[nH]c(-c2ccc(F)cc2)c1-c1ccncc1 [Example 2, 5-(4-Fluorophenyl)-3-(3-phenylpropionylamino)-4-(4-pyridyl)pyrazole] | 253.5 to 255.1 °C
COc1ccc(CC(=O)Nc2n[nH]c(-c3ccc(F)cc3)c2-c2ccncc2)cc1 [Example 3, 5-(4-Fluorophenyl)-3-(4-methoxyphenylacetylanino)-4-(4-pyridyl)pyrazole] | 265.1 to 266.2 °C
CC(C(=O)Nc1n[nH]c(-c2ccc(F)cc2)c1-c1ccncc1)c1ccccc1 (stereo not drawn) [Example 5, 5-(4-Fluorophenyl)-3-(2-phenylpropionylamino)-4-(4-pyridyl)pyrazole] | 240.6 to 241 °C
O=C(Cc1ccc(Cl)cc1)Nc1n[nH]c(-c2ccc(F)cc2)c1-c1ccncc1 [Example 6, 3-(4-Chlorophenylacetylamino)-5-(4-fluorophenyl)-4-(4-pyridyl)pyrazole] | 273.2 to 277.3 °C
Cc1ccc(CC(=O)Nc2n[nH]c(-c3ccc(F)cc3)c2-c2ccncc2)cc1 [Example 7, 5-(4-Fluorophenyl)-3-(4-methylphenylacetylamino)-4-(4-pyridyl)pyrazole] | 262.8 to 264.7 °C
O=C(Cc1ccc(C(F)(F)F)cc1)Nc1n[nH]c(-c2ccc(F)cc2)c1-c1ccncc1 [Example 8, 5-(4-Fluorophenyl)-4-(4-pyridyl)-3-(4-trifluoromethylphenylacetylamino)pyrazole] | 282.1 to 288.4 °C
O=C(Cc1ccccc1)Nc1n[nH]c(-c2ccccc2)c1-c1ccncc1 [Example 9, 3-Phenylacetylamino-5-phenyl-4-(4-pyridyl)pyrazole] | 257.3 to 264.1 °C
O=C(Cc1ccccc1)Nc1n[nH]c(-c2ccc(F)cc2)c1-c1ccnc2ccccc12 [Example 10, 5-(4-Fluorophenyl)-4-(4-quinolyl)-3-phenylacetylaminopyrazole] | 273.4 to 275.3 °C
O=C(Cc1cccs1)Nc1n[nH]c(-c2ccc(F)cc2)c1-c1ccncc1 [Example 11, 5-(4-Fluorophenyl)-4-(4-pyridyl)-3-(2-thienylacetylamino)pyrazole] | 264.6 to 268.3 °C
O=C(Nc1n[nH]c(-c2ccc(F)cc2)c1-c1ccncc1)c1ccccc1 [Example 13, 3-Benzoylamino-5-(4-fluorophenyl)-4-(4-pyridyl)pyrazole] | 270.5 to 276.1 °C
O=C(CO)Nc1n[nH]c(-c2ccc(F)cc2)c1-c1ccncc1 [Example 14, 5-(4-Fluorophenyl)-3-hydroxyacetylamino-4-(4-pyridyl)pyrazole] | 264 to 266 °C
COCC(=O)Nc1n[nH]c(-c2ccc(F)cc2)c1-c1ccncc1 [Example 15, 5-(4-Fluorophenyl)-3-methoxyacetylamino-4-(4-pyridyl)pyrazole] | 246 to 248 °C
CCC(=O)Nc1n[nH]c(-c2ccc(F)cc2)c1-c1ccncc1 [Example 17, 5-(4-Fluorophenyl)-3-propionylamino-4-(4-pyridyl)pyrazole] | 272 to 275 °C
CC(C)C(=O)Nc1n[nH]c(-c2ccc(F)cc2)c1-c1ccncc1 [Example 18, 5-(4-Fluorophenyl)-3-isobutyrylamino-4-(4-pyridyl)pyrazole] | 291.1 to 294 °C
CC(C)CC(=O)Nc1n[nH]c(-c2ccc(F)cc2)c1-c1ccncc1 [Example 19, 5-(4-Fluorophenyl)-3-isovalerylamino-4-(4-pyridyl)pyrazole] | 291.1 to 294 °C
CCCCC(=O)Nc1n[nH]c(-c2ccc(F)cc2)c1-c1ccncc1 [Example 20, 5-(4-Fluorophenyl)-4-(4-pyridyl)-3-valerylaminopyrazole] | 273.7 to 275.8 °C
CC(C)(C)C(=O)Nc1n[nH]c(-c2ccc(F)cc2)c1-c1ccncc1 [Example 21, 5-(4-Fluorophenyl)-4-(4-pyridyl)-3-pivaloylaminopyrazole] | 217.9 to 220.6 °C
O=C(Nc1n[nH]c(-c2ccc(F)cc2)c1-c1ccncc1)C(F)(F)F [Example 22, 5-(4-fluorophenyl)-4-(4-pyridyl)-3-trifluoroacetylaminopyrazole] | 260.1 to 265.2 °C

SMILES | melting point
O=C(CC1CCCCC1)Nc1n[nH]c(-c2ccc(F)cc2)c1-c1ccncc1 [Example 23, 3-cyclohexylacetylamino-5-(4-fluorophenyl)-4-(4-pyridyl)pyrazole] | 296.3 to 299.9 °C
O=C(Cc1ccccc1Cl)Nc1n[nH]c(-c2ccc(F)cc2)c1-c1ccncc1 [Example 24, 3-(2-chlorophenylacetylamino)-5-(4-fluorophenyl)-4-(4-pyridyl)pyrazole] | 238.8 to 240.1 °C
O=C(Cc1cccc(Cl)c1)Nc1n[nH]c(-c2ccc(F)cc2)c1-c1ccncc1 [Example 25, 3-(3-Chlorophenylacetylamino)-5-(4-fluorophenyl)-4-(4-pyridyl)pyrazole] | 249.7 to 250.8 °C
O=C(Cc1ccc(F)cc1)Nc1n[nH]c(-c2ccc(F)cc2)c1-c1ccncc1 [Example 26, 5-(4-Fluorophenyl)-3-(4-fluorophenylacetylamino)-4-(4-pyridyl)pyrazole] | 259.4 to 261.2 °C
O=C(Cc1ccc([N+](=O)[O-])cc1)Nc1n[nH]c(-c2ccc(F)cc2)c1-c1ccncc1 [Example 27, 5-(4-Fluorophenyl)-3-(4-nitrophenylacetylamino)-4-(4-pyridyl)pyrazole] | 299.3 to 302.3 °C
O=C(Cc1ccsc1)Nc1n[nH]c(-c2ccc(F)cc2)c1-c1ccncc1 [Example 28, 5-(4-Fluorophenyl)-4-(4-pyridyl)-3-(3-thienylacetylamino)pyrazole] | 279.6 to 282.9 °C (dec.)
O=C(Cc1ccncc1)Nc1n[nH]c(-c2ccc(F)cc2)c1-c1ccncc1 [Example 29, 5-(4-Fluorophenyl)-4-(4-pyridyl)-3-(4-pyridylacetylamino)pyrazole] | 248.3 to 251.8 °C (dec.)
O=C(Cc1c(F)c(F)c(F)c(F)c1F)Nc1n[nH]c(-c2ccc(F)cc2)c1-c1ccncc1 [Example 31, 5-(4-Fluorophenyl)-3-(2,3,4,5,6-pentafluorophenylacetylamino)-4-(4-pyridyl)pyrazole] | ≥ 325 °C
O=C(Nc1n[nH]c(-c2ccc(F)cc2)c1-c1ccncc1)C(c1ccccc1)c1ccccc1 [Example 32, 3-Diphenylacetylamino-5-(4-fluorophenyl)-4-(4-pyridyl)pyrazole] | 266.5 to 269.2 °C
CC(C)(C(=O)Nc1n[nH]c(-c2ccc(F)cc2)c1-c1ccncc1)c1ccccc1 [Example 33, 3-(α,α-Dimethylphenylacetylamino)-5-(4-fluorophenyl)-4-(4-pyridyl)pyrazole] | 239.1 to 241.5 °C
Cn1nc(-c2ccc(F)cc2)c(-c2ccncc2)c1NC(=O)Cc1cc(F)ccc1F [Example 35, 5-(2,5-difluorophenylacetylamino)-3-(4-fluorophenyl)-1-methyl-4-(4-pyridyl)pyrazole] | 207 to 208 °C
Cn1nc(-c2ccc(F)cc2)c(-c2ccncc2)c1NC(=O)Cc1c(F)cccc1Cl [Example 36, 5-(2-Chloro-6-fluorophenylacetylamino)-3-(4-fluorophenyl)-1-methyl-4-(4-pyridyl)pyrazole] | 216.9 to 224.6 °C
Cn1nc(-c2ccc(F)cc2)c(-c2ccncc2)c1NC(=O)Cc1ccc(Cl)c(Cl)c1 [Example 37, 5-(3,4-Dichlorophenylacetylamino)-3-(4-fluorophenyl)-1-methyl-4-(4-pyridyl)pyrazole] | 205.1 to 207 °C
Cn1nc(-c2ccc(F)cc2)c(-c2ccncc2)c1NC(=O)Cc1c(Cl)cccc1Cl [Example 38, 5-(2,6-Dichlorophenylacetylamino)-3-(4-fluorophenyl)-1-methyl-4-(4-pyridyl)pyrazole] | 252.5 to 256.7 °C
Cn1nc(-c2ccc(F)cc2)c(-c2ccncc2)c1NC(=O)Cc1ccc(F)cc1Cl [Example 39, 5-(2-Chloro-4-fluorophenylacetylamino)-3-(4-fluorophenyl)-1-methyl-4-(4-pyridyl)pyrazole] | 229 to 232.7 °C
Cn1nc(-c2ccc(F)cc2)c(-c2ccncc2)c1NC(=O)Cc1ccc(F)cc1F [Example 40, 5-(2,4-Difluorophenylacetylamino)-3-(4-fluorophenyl)-1-methyl-4-(4-pyridyl)pyrazole] | 225.5 to 228.3 °C
Cn1nc(-c2ccc(F)cc2)c(-c2ccncc2)c1NC(=O)Cc1ccc(Cl)cc1Cl [Example 41, 5-(2,4-Dichlorophenylacetylamino)-3-(4-fluorophenyl)-1-methyl-4-(4-pyridyl)pyrazole] | 224.3 to 225.4 °C
COc1ccc(CC(=O)Nc2c(-c3ccncc3)c(-c3ccc(F)cc3)nn2C)cc1OC [Example 42, 5-(3,4-Dimethoxyphenylacetylamino)-3-(4-fluorophenyl)-1-methyl-4-(4-pyridyl)pyrazole] | 128.1 to 129.6 °C
Cn1nc(-c2ccc(F)cc2)c(-c2ccncc2)c1NC(=O)Cc1ccc2c(c1)OCO2 [Example 43, 3-(4-Fluorophenyl)-1-methyl-5-(3,4-methylenedioxyphenylacetylamino)-4-(4-pyridyl)pyrazole] | 113.6 to 116.5 °C
COc1ccc(CC(=O)Nc2c(-c3ccncc3)c(-c3ccc(F)cc3)nn2C)cc1OC [Example 44, 5-(3,4-Dimethoxyphenylacetylamino)-3-(4-fluorophenyl)-1-methyl-4-(4-pyridyl)pyrazole] | 174.4 to 180.3 °C
Cn1nc(-c2ccc(F)cc2)c(-c2ccncc2)c1NC(=O)Cc1cc(C(F)(F)F)cc(C(F)(F)F)c1 [Example 45, 5-(3,5-Ditrifluoromethylphenylacetylamino)-3-(4-fluorophenyl)-1-methyl-4-(4-pyridyl)pyrazole] | 228.3 to 230.6 °C
